# Results taken from patent US9446151B2, “In vivo imaging of enzymatic activity” (Caliper Life Sciences, Inc., priority 2011, dated 2016).
# Tests used:
# [1] = system: MDA-MB-231-luc2 tumor metastases; settings: Nu/Nu mouse, three weeks after intracardiac injection of 1 million MDA-MB-231-luc2 cells; IVIS imaging
# Method: A Nu/Nu mouse was intracardiacally injected with 1 million of MDA-MB-231-luc2 cells. At three weeks, the mouse was imaged with an IVIS spectrum following intraperitoneal injection of luciferin (150 mg/kg). […] At 24 hours after luciferin injection when the bioluminescence signal returned to a base line level, this mouse was injected intravenously with luminol.
# As inflammation is involved in a broad range of disease process, including tumor development, the utility of the NAC compositions and methods was also tested for tumor detection. In a systemic metastases model through intracardiac injection of MDA-MB-231-luc tumor, metastatic tumor development in lungs and knee joints was also evaluated using NAC compositions. Briefly, a Nu/Nu mouse was injected intracardiacally with 1 million MDA-MB-231-luc2 tumor cells. At three weeks, the mouse was imaged with an IVIS spectrum following intraperitoneal injection of luciferin (150 mg/kg). At 24 hours after luciferin injection when the bioluminescence signal returned to a base line level, this mouse was injected intravenously with luminol.
# [2] = system: free radical production in the pulmonary tissues; settings: LPS 1 mg/kg intratracheal; intravenous probe; imaging 5 minutes after injection; vs non-LPS control mice given luminol/Quantum dot 800 mixture
# Method: Animals were divided into three groups of animals.
# An acute inflammatory response in pulmonary tissues was induced by intratracheal delivery of LPS to mice. In particular, LPS was dissolved in sterile PBS to a concentration of 10 mg/ml. LPS (in 50 μl total volume) was delivered to mice intratracheally with a 22-gauge intubator. The final dose of LPS was 1 mg/kg. […] Imaging was performed at 5 minutes after injection.
Compound,detection of tumor metastases (loci) [1],increase of NAC / lung signal from the pulmonary tissues as compared to control mice [2]
O=C(O)[C@H]1CSC(c2nc3ccc(O)cc3s2)=N1 [luciferin],"detected in the lungs, knee joints and cranial region",–
Nc1cccc2c(=O)[nH][nH]c(=O)c12 [luminol],Tumor metastasis at the knee joint was detected,two
